Measured values: patent US9199862B2, “Method for adsorbing fluorocarboxylic acid having ether bond and method for collecting same” (DAIKIN INDUSTRIES, LTD., priority 2009, dated 2015)

Legend:
solubility in water = format: physicochemical; settings: normal temperature
Source text: A fluorocarboxylic acid having an ether bond, for example, 2,3,3,3-tetrafluoro-2-[1,1,2,3,3,3-hexafluoro-2-(trifluoromethoxy)propoxy]-propanoic acid has a solubility in water of about 10% at normal temperature, which is about 50 times of the solubility of perfluorooctanoic acid (PFOA) in water. Therefore, the adsorption rate of general active carbon, for example, general-purpose active carbon for waste water which was conventionally used is 5% or less at normal temperature and pH 7.

[1] = adsorption and desorption by heating the active carbon in a dryer at 99° C. (Example 3); format: physicochemical; settings: Tables 3 and 4, 99° C. for 48 hours
Description: An active carbon (Specific surface area: 500-2,000 m^2/g) (0.1 g), to which 2,3,3,3-tetrafluoro-2-[1,1,2,3,3,3-hexafluoro-2-(trifluoromethoxy)propoxy]-propanoic acid was adsorbed until reaching the breakthrough point, was charged into a dryer and left at a temperature of 99° C. for 48 hours. The desorption amount was taken as the same as an adsorption amount in adsorption again after the desorption.

[2] = normal temperature; cited from earlier work

O=C(O)C(F)(OC(F)(F)C(F)(OC(F)(F)F)C(F)(F)F)C(F)(F)F (stereo not drawn) [2,3,3,3-tetrafluoro-2-[1,1,2,3,3,3-hexafluoro-2-(trifluoromethoxy)propoxy]-propanoic acid]
solubility in water relative to perfluorooctanoic acid (PFOA) (solubility in water): about 50 times
desorption compared with perfluorohexanoic acid [1]: higher desorption
solubility in water [2]: about 10%
